# Entries after “also recorded” stand apart in the source; their conditions may differ.
# How the values were obtained:
# ERK1/2 = assay: Epinephrine-stimulated ERK1/2 phosphorylation in cultured rat DRG neurons (Western analysis); format: cell-based; details: for effect on epinephrine-induced ERK phosphorylation: 1 μM epinephrine 5 min, ICI 118,551 100 nM, U0126 10 μM, H89 1 μM, calphostin C 1 μM
# Method: Trypsin was inactivated by adding 100 μg/ml soybean trypsin inhibitor and 2.5 mg/ml MgSO4. The cells were centrifuged at 300×g for 5 min and resuspended culture media containing minimal essential medium (MEM) supplemented with 10% heat-inactivated fetal calf serum, 1×MEM vitamins, and 1000 U/ml each of penicillin and streptomycin. The culture was enriched for neurons by preplating on 100 mm culture dishes pretreated with 0.1 mg/ml poly-DL-ornithine in 15 mM sodium borate buffer. After culture for 15-20 hr, the loosely attached neuronal cells were collected and plated for 3 hr on six-well plates coated with 0.1 mg/ml poly-DL-ornithine and 1 mg/ml laminin.
# After drug treatment, cells from neuron-enriched DRG cultures were collected and centrifuged at 300×g for 5 min at 4° C. […] Blots were incubated with anti-phospho-p42/44 MAP kinase antibody (diluted 1:500 in blocking buffer) overnight at 4° C. Blots were rinsed three times in PBS-T and incubated in blocking buffer containing HRP-conjugated goat anti-rabbit IgG (diluted 1:1000; Boehringer Mannheim, Indianapolis, Ind.) for 1 hr at 27° C. Immunoreactive bands were visualized by enhanced chemiluminescence (Amersham Pharmacia Biotech, Piscataway, N.J.). The membranes were then stripped of antibodies by incubation in 200 mM NaOH for 20 min at 27° C. […] After three washes in PBS-T, blots were incubated with HRP-conjugated goat anti-rabbit IgG (diluted 1:1000; Boehringer Mannheim) for 1 hr at 27° C., and immunoreactive bands were visualized by enhanced chemiluminescence and autoradiography. […] Data were normalized by dividing values obtained for phospho-ERK1 and phospho-ERK2 immunoreactivity by the value obtained for total ERK1 immunoreactivity for each sample.
# [1] = system: mechanical nociceptive threshold; assay: Epinephrine-induced mechanical hyperalgesia, Randall-Selitto paw-withdrawal test (Example 1); details: intradermal, inhibitor 1 μg plus epinephrine 100 ng, male rats
# Excerpt: The nociceptive flexion reflex (Randall-Selitto paw-withdrawal test) was quantified with a Basile Analge-symeter (Stoelting, Chicago, Ill.), which applies a linearly increasing mechanical force to the dorsum of the rat's hindpaw. The mechanical nociceptive threshold was defined as the force in grams at which the rat withdrew its paw. […] They were allowed to crawl into individual cylindrical Perspex blocks and were lightly restrained there by closing both ends of the cylinder. […] The rats were allowed to acclimatize to the restrainer for 5-10 min, after which the hindpaws were exposed to the test stimulus. Three readings were taken at 5 min intervals, and their mean was considered the baseline threshold. After each drug administration, mechanical paw-withdrawal thresholds were determined again as the mean of three readings taken 20, 25, and 30 min after injection.
# Inhibitors were diluted with distilled water before intra-dermal injections into the paw using a 10 μl microsyringe (Hamilton, Reno, Nev.). Injections of peptides (1 μg/2.5 μl) were always preceded by injection of distilled water (2.5 μl) to produce hypo-osmotic shock. […] Paw-withdrawal thresholds were measured again 10, 15, and 20 min after injecting the test agent. The mean of the paw-withdrawal thresholds obtained at these three times was then taken as the mechanical nociceptive threshold at the dose of the test agent used. The effect of each dose a test agent was calculated as the percentage change from baseline.
# [2] = system: mechanical nociceptive threshold; assay: Prostaglandin E2-induced hyperalgesia in male and female rats (Example 2); format: in vivo, rat
# Excerpt: The nociceptive flexion reflex was quantified using the Randall-Selitto paw pressure device (Analgesymeter, Stoetling, Chicago, Ill., USA), which applies a linearly increasing mechanical force to the dorsum of the rat's hind paw. The mechanical nociceptive threshold was defined as the force in grams at which the rat withdrew its paw. The protocols for this procedure have been previously described (Taiwo et al., (1989) The contribution of training to sensitivity in the nociceptive paw-withdrawal test. Brain Res., 487:148-151). Rats were familiarized in the testing procedure, at 5-min intervals for a period of 1 h per day for 3 days in the week preceding the experiment, to decrease variance in nociceptive thresholds (Taiwo et al., (1989), supra). Baseline paw-withdrawal threshold was defined as the mean of six readings before test agents were injected. Each paw was treated as an independent measure (Taiwo et al., (1989), supra) and each experiment was performed on a separate group of rats. Each group of rats was treated with only one agonist and/or antagonist injected peripherally by the intradermal route. It has been shown in previous studies that these agents, which are injected using the protocol described, exert a peripheral rather than central action (Khasar et al., (1995), supra; and, Khasar et al., (1999b), supra). The dose-response relationship for the effect of epinephrine was determined over a dose range of 1 ng-1 μg. All behavioural testing was done between 10.00 and 16.00 h. The blocking agents, with and without epinephrine (Khasar et al., (1999b), supra) or prostaglandin E2 (PGE2) (Aley et al., (1998), supra; Aley & Levine, (1999), supra; and, Aley et al., (2000) Chronic hypersensitivity for inflammatory nociceptor sensitization mediated by the epsilon isozyme of protein kinase C. J. Neurosci., 20:4680-4685), were injected as described previously (Khasar et al., (1995), supra; and, Khasar et al., (1999b), supra). […]
# [3] = system: mechanical nociceptive threshold; assay: Epinephrine-induced hyperalgesia in gonad-intact and gonadectomized male and female rats (Example 2); details: inhibitor 1 μg, epinephrine 100 ng intradermal
# Method: The nociceptive flexion reflex was quantified using the Randall-Selitto paw pressure device (Analgesymeter, Stoetling, Chicago, Ill., USA), which applies a linearly increasing mechanical force to the dorsum of the rat's hind paw. The mechanical nociceptive threshold was defined as the force in grams at which the rat withdrew its paw. […] Baseline paw-withdrawal threshold was defined as the mean of six readings before test agents were injected. […] Each group of rats was treated with only one agonist and/or antagonist injected peripherally by the intradermal route. […] All behavioural testing was done between 10.00 and 16.00 h. […] The protein kinase inhibitor was separated from the distilled water by drawing up a small air bubble (<1 μL) into the syringe after drawing up the protein kinase inhibitor but before drawing up the distilled water.
# A stock solution of PGE2 (4 mg/mL) was made by dissolving it in 10% ethanol in normal saline; further dilution to 100 ng was made by addition of saline. Final concentration of ethanol was <10%. […] Stock solutions (1 μg/μL) of inhibitors were stored at −20° C. […] Inhibitors were injected at a concentration of 1 μg/2.5 μL.
# [4] = system: Taxol-induced hyperalgesia; assay: Taxol-induced painful peripheral neuropathy, Randall-Selitto paw-withdrawal test; format: in vivo, rat; details: male and female rats; normal approximately 110 grams
# Excerpt: (§1) The role of Ras-MEK-ERK 1/2 cascade in painful peripheral neuropathy has been evaluated in three rodent models of common clinical conditions in which patients experience painful peripheral neuropathy. The three models are as follows: 1) Taxol® (a major cancer chemotherapy agent)-induced painful peripheral neuropathy (Dina, O. A., et al., (2001) Role of protein kinase C-epsilon and protein kinase A in a model of paclitaxel-induced painful peripheral neuropathy in the rat. Neuroscience 108:507-515); 2) vincristine (another cancer chemotherapy agent)-induced painful peripheral neuropathy (Aley, K. O., et al., (1996) Vincristine hyperalgesia in the rat: a possible modelfor painful vincristine neuropathy in humans. Neuroscience 73:259-265; Tanner, K. D., et al., (1998) Nociceptor hyper-responsiveness during vincristine-induced painful peripheral neuropathy in the rat. J. Neuroscience 18:6480-6491; Tanner, K. D., et al., (1998) Microtubule disorientation and axonal swelling in unmyelinated sensory axons during vincristine-induced painful neuropathy in rat. J. Comp. Neurol., 395:481-492; and, Tanner, K. D., et al., (2002) Altered temporal patterning of afferent activity in a rat model of vincristine-induced peripheral neuropathy (Submitted -Neuroscience).); and, 3) alcohol-induced painful peripheral neuropathy (Dina, O. A., et al., (2000) Key role for the epsilon isoform of protein kinase C in painful alcoholic neuropathy in the rat. J. Neurosci. 20:8614-8619). In all three models, inhibition of MEK by a MEK inhibitor, PD98509, produced either a moderate (Taxol and vincristine) or profound (alcohol) reversal of the painful peripheral neuropathy. In the third model, alcohol-induced painful peripheral neuropathy, a second inhibitor of the Ras-MEK-ERK 1/2 cascade, which was MEK inhibitor U0126, was also employed.
# The pain threshold in normal male and female rats was approximately 110 grams, using the Randall-Selitto paw-withdrawal test (plotted as absolute change in nociceptive threshold). Following administration of Taxol, the threshold fell to approximately 70 grams.
# [5] = system: alcohol-induced hyperalgesia; assay: Alcohol-induced painful peripheral neuropathy, Randall-Selitto paw-withdrawal test; format: in vivo, rat
# Excerpt: as §1
# The pain threshold in normal rats was approximately 110 grams, using the Randall-Selitto paw-withdrawal threshold test (plotted as percentage change in nociceptive threshold). Following chronic consumption of a diet in which alcohol replaced calories, but not other nutrients, in the normal diet, the threshold fell to approximately 70 grams. […] See FIG. 13A, which illustrates results from female rats and FIG. 13B, which illustrates results from male rats.
# [6] = system: mechanical nociceptive threshold; details: rat, in vivo; cited from earlier work
# [7] = system: vincristine-induced hyperalgesia; assay: Vincristine-induced painful peripheral neuropathy, Randall-Selitto paw-withdrawal test; format: in vivo, rat; details: male and female rats; normal approximately 110 grams
# Excerpt: as §1
# The pain threshold in normal male and female rats was approximately 110 grams, using the Randall-Selitto paw-withdrawal test (plotted as absolute change in nociceptive threshold). Following administration of vincristine, the threshold fell to approximately 65 grams.
molecule,measurement,setting,value
"O=S(=O)(NCCNCC=Cc1ccc(Br)cc1)c1cccc2cnccc12 [H89, N-[2-(p-bromocinnamylamino)ethyl]-5-isoquinolinesulfonamide]",effect on epinephrine-induced ERK phosphorylation,ERK1/2,did not reduce; also recorded: did not block
same,effect on epinephrine-induced mechanical hyperalgesia,[1],did not block
"Cc1ccc(OCC(O)C(C)NC(C)C)c2c1CCC2 (stereo not drawn) [ICI 118,551]",effect on epinephrine-induced ERK phosphorylation,ERK1/2,inhibited
same,effect on basal ERK phosphorylation,ERK1/2; unstimulated cultures,did not inhibit
"CNC(=N)NCCC[C@H](N)C(=O)O [L-NMA, NG-methyl-L-arginine]",effect on prostaglandin E2-induced hyperalgesia,"[2]; both sexes, gonad-intact, inhibitor 1 μg, PGE2 100 ng intradermal",significantly blocked; also recorded: inhibited to a similar degree
same,effect on epinephrine-induced hyperalgesia,[3]; gonadectomized female rats,significantly antagonized
same,effect on epinephrine-induced hyperalgesia,[3]; gonadectomized male rats,significantly antagonized
same,effect on epinephrine-induced hyperalgesia,[3]; intact female rats,did not have a significant effect
same,effect on epinephrine-induced hyperalgesia,[3]; intact male rats,significantly antagonized
CC(=O)O[C@H]1C(=O)[C@@]2(C)[C@H]([C@H](OC(=O)c3ccccc3)[C@]3(O)C[C@H](OC(=O)[C@H](O)[C@@H](NC(=O)c4ccccc4)c4ccccc4)C(C)=C1C3(C)C)[C@]1(OC(C)=O)CO[C@@H]1C[C@@H]2O [Taxol],pain threshold following administration of Taxol,[4],approximately 70 grams
CCO [alcohol],threshold following chronic consumption of alcohol diet,[5]; female rats (FIG. 13A),approximately 70 grams
same,threshold following chronic consumption of alcohol diet,[5]; male rats (FIG. 13B),approximately 70 grams
same,pain threshold following chronic consumption of alcohol diet,[5]; normal approximately 110 grams,approximately 70 grams
C=C(C)[C@@H]1CC=C(C(=O)O)CC1 [perillic acid],effect on epinephrine-induced mechanical hyperalgesia,[1],reduced
Cc1ccc(N(CC2=NCCN2)c2cccc(O)c2)cc1 [phentolamine],effect on epinephrine hyperalgesia in the rat (previously demonstrated),[6],not
CC(C)NCC(O)COc1cccc2ccccc12 (stereo not drawn) [propranolol],effect on epinephrine hyperalgesia in the rat (previously demonstrated),[6],significantly attenuated
same,effect on epinephrine-induced hyperalgesia,[3]; intact female rats,inhibited
same,effect on epinephrine-induced hyperalgesia,[3]; intact male rats,inhibited
CCCCC[C@H](O)/C=C/[C@H]1[C@H](O)CC(=O)[C@@H]1C/C=C\CCCC(=O)O [prostaglandin E2],magnitude of hyperalgesia in intact female rats vs males,[2]; PGE2 100 ng,greater
CC[C@]1(O)C[C@H]2CN(CCc3c([nH]c4ccccc34)[C@@](C(=O)OC)(c3cc4c(cc3OC)N(C=O)[C@H]3[C@@](O)(C(=O)OC)[C@H](OC(C)=O)[C@]5(CC)C=CCN6CC[C@]43[C@@H]65)C2)C1 [vincristine],pain threshold following administration of vincristine,[7],approximately 65 grams
calphostin C,effect on epinephrine-induced ERK phosphorylation,ERK1/2,did not reduce
pertussis toxin,effect on epinephrine-induced phosphorylation of ERK1/2,"ERK1/2; pertussis toxin or 1 μM FTase I for 16 hr, then 1 μM epinephrine",prevented; also recorded: inhibit
same,effect on epinephrine-induced mechanical hyperalgesia,[1],reduced
"NGF: mouse 2.5 S nerve growth factor, positive control for ERK1/2 phosphorylation (protein, UniProt P01139 122-241, looked up, Beta-nerve growth factor, mouse 2.5 S nerve growth factor, positive control for ERK1/2 phosphorylation) Beta-nerve growth factor: SSTHPVFHMGEFSVCDSVSVWVGDKTTATDIKGKEVTVLAEVNINNSVFRQYFFETKCRASNPVESGCRGIDSKHWNSYCTTTHTFVKALTTDEKQAAWRFIRIDTACVCVLSRKATRRG",ERK1/2 phosphorylation (representative Western blot),"ERK1/2; epinephrine for indicated times, NGF 50 ng/ml 5 min",stimulation

# — patent US20030008807A1, “Novel signaling pathway for the production of inflammatory pain and neuropathy” (The Regents of the University of California, priority 2001, published 2003)
